Experimental data taken from patent publication US11091478B2 (Fochon Pharmaceuticals, Ltd., priority 2017, dated 2021).

Each molecule was assayed on DOHH2 cells (assay: Cell proliferation assay (MTS), DOHH2 cells, 120 h). Details: Homo sapiens, DOHH-2, 120 h.
Assay type: cell-based
From the text: Cell Proliferation Assays
MTS testing kit was purchased from Promega. The RPMI-1640, Fetal bovine serum and Penicillin-Streptomycin were purchased from Gibco. Dimethyl sulfoxide (DMSO) was purchased from Sigma.
To investigate whether a compound is able to inhibit the activity of BCL-2 in cells, a mechanism-based assay using DOHH2 (DSMZ No.® ACC 47) and RS4;11 (ATCC® CRL-1873™) cell was developed. In this assay, inhibition of Bcl-2 was detected by the inhibition of DOHH2 cells proliferation. DOHH2 cells were cultured in culture flasks to 40-80% confluence in RPMI-1640 plus 10% fetal bovine serum. Cells were collected and plated onto 96-well plates at desired cell density (5000 cells/well). Plates were incubated overnight at 37° C., with 5% CO2 to adhere. Compounds were added to the plates, and the final compound concentrations were 10000, 3333, 1111, […], 124, 41, 14, 4.6 and 1.5 nM. Plates plated with DOHH2 or RS4;11 cells were placed at 37° C., with 5% CO2 for 120 h (DOHH2) or 72 h (RS4;11) respectively. 20 μl MTS/100 μl medium mixture solution were added to each well and incubate the plates for exactly 2 hours. The reaction was stopped by adding 25 μl 10% SDS per well. Measure absorbance at 490 nm and 650 nm (reference wavelength). IC50 was calculated using GraphPad Prism 5.0.
Select compounds prepared as described above were assayed according to the biological procedures described herein.

SMILES | IC50 [nM]
CC1(C)CCC(CN2CCN(c3ccc(C(=O)NS(=O)(=O)c4cc5c(c([N+](=O)[O-])c4)N[C@@H](c4ccccn4)CO5)c(Oc4cnc5[nH]ccc5c4)c3)CC2)=C(c2ccc(Cl)cc2)C1 [Example 2-171, (S)-2-((1H-pyrrolo[2,3-b]pyridin-5-yl)oxy)-4-(4-((4′-chloro-5,5-dimethyl-3,4,5,6-tetra-hydro-[1,1′biphenyl]-2-yl)methyl)piperazin-1-yl)-N-((5-nitro-3-(pyridin-2-yl)-3,4-di-hydro-2H-benzo[b][1,4]oxazin-7-yl)sulfonyl) benzamide] | 302
CC1(C)CCC(CN2CCN(c3ccc(C(=O)NS(=O)(=O)c4cc5c(c([N+](=O)[O-])c4)N[C@@H](CN=S4(=O)CCCC4)CO5)c(Oc4cnc5[nH]ccc5c4)c3)CC2)=C(c2ccc(Cl)cc2)C1 [Example 2-76, (S)-2-((1H-pyrrolo[2,3-b]pyridin-5-yl)oxy)-4-(4-((4′-chloro-5,5-dimethyl-3,4,5,6-tetra-hydro-[1,1′-biphenyl]-2-yl)methyl)piperazin-1-yl)-N-((5-nitro-3-(((1-oxidotetrahydro-1λ^6-thiophen-1-ylidene)amino)methyl)-3,4-dihydro-2H-benzo[b][1,4]oxazin-7-yl)sulfo-nyl)benzamide] | 120
CN1CCN(C[C@@H]2COc3cc(S(=O)(=O)NC(=O)c4ccc(N5CCN(CC6=C(c7ccc(Cl)cc7)CC(C)(C)CC6)CC5)cc4Oc4cnc5[nH]ccc5c4)cc([N+](=O)[O-])c3N2)CC1 [Example 2-4, (R)-2-((1H-pyrrolo[2,3-b]pyridin-5-yl)oxy)-4-(4-((4′-chloro-5,5-dimethyl-3,4,5,6-tetra-hydro-[1,1′-biphenyl]-2-yl)methyl)piperazin-1-yl)-N-((3-((4-methylpiperazin-1-yl)meth-yl)-5-nitro-3,4-dihydro-2H-benzo[b][1,4]oxazin-7-yl)sulfonyl)benzamide] | 139
CC1(C)CCC(CN2CCN(c3ccc(C(=O)NS(=O)(=O)c4cc5c(c([N+](=O)[O-])c4)N[C@H](CN4CCC(C)(O)CC4)C5)c(Oc4cnc5[nH]ccc5c4)c3)CC2)=C(c2ccc(Cl)cc2)C1 [Example 1-4, (S)-2-((1H-pyrrolo[2,3-b]pyridin-5-yl)oxy)-4-(4-((4′-chloro-5,5-dimethyl-3,4,5,6-tetra-hydro-[1,1′-biphenyl]-2-yl)methyl)piperazin-1-yl)-N-((2-((4-hydroxy-4-methylpiperidin-1-yl)methyl)-7-nitroindolin-5-yl)sulfonyl) benzamide] | 308
CC1(C)CCC(CN2CCN(c3ccc(C(=O)NS(=O)(=O)c4cc5c(c([N+](=O)[O-])c4)N[C@H](CCNC(=O)C4CCOCC4)CO5)c(Oc4cnc5[nH]ccc5c4)c3)CC2)=C(c2ccc(Cl)cc2)C1 [Example 2-57, (R)-N-(2-(7-(N-(2-((1H-pyrrolo[2,3-b]pyridin-5-yl)oxy)-4-(4-((4′-chloro-5,5-dimethyl-3,4,5,6-tetrahydro-[1,1′-biphenyl]-2-yl)meth-yl)piperazin-1-yl)benzoyl)sulfamoyl)-5-nitro-3,4-dihydro-2H-benzo[b][1,4]oxazin-3-yl)ethyl)tetrahydro-2H-pyran-4-carboxamide] | 392
CC1(C)CCC(CN2CCN(c3ccc(C(=O)NS(=O)(=O)c4cc5c(c([N+](=O)[O-])c4)N[C@@H](c4ccc(F)cn4)CO5)c(Oc4cnc5[nH]ccc5c4)c3)CC2)=C(c2ccc(Cl)cc2)C1 [Example 2-197, (S)-2-((1H-pyrrolo[2,3-b]pyridin-5-yl)oxy)-4-(4-((4′-chloro-5,5-dimethyl-3,4,5,6-tetra-hydro-[1,1′-biphenyl]-2-yl)methyl)piperazin-1-yl)-N-((3-(5-fluoropyridin-2-yl)-5-nitro-3,4-dihydro-2H-benzo[b][1,4]oxazin-7-yl)sulfonyl)benzamide] | 412
CC1(C)CCC(CN2CCN(c3ccc(C(=O)NS(=O)(=O)c4cc5c(c([N+](=O)[O-])c4)N[C@H](CCO)C5)c(Oc4cnc5[nH]ccc5c4)c3)CC2)=C(c2ccc(Cl)cc2)C1 [Example 1-20, (S)-2-((1H-pyrrolo[2,3-b]pyridin-5-yl)oxy)-4-(4-((4′-chloro-5,5-dimethyl-3,4,5,6-tetra-hydro-[1,1′-biphenyl]-2-yl)methyl)piperazin-1-yl)-N-((2-(2-hydroxyethyl)-7-nitro-indolin-5-yl)sulfonyl)benzamide] | 170
CC1(C)CCC(CN2CCN(c3ccc(C(=O)NS(=O)(=O)c4cc5c(c([N+](=O)[O-])c4)O[C@H](c4ccc(Cl)cn4)CN5)c(Oc4cnc5[nH]ccc5c4)c3)CC2)=C(c2ccc(Cl)cc2)C1 [Example 2-218, (S)-2-((1H-pyrrolo[2,3-b]pyridin-5-yl)oxy)-4-(4-((4′-chloro-5,5-dimethyl-3,4,5,6-tetra-hydro-[1,1′-biphenyl]-2-yl)methyl)piperazin-1-yl)-N-((2-(5-chloropyridin-2-yl)-8-nitro-3,4-dihdyro-2H-benzo[b][1,4]oxazin-6-yl)sulfonyl)benzamide] | 507
C[C@@H]1COCCN1C[C@H]1COc2cc(S(=O)(=O)NC(=O)c3ccc(N4CCN(CC5=C(c6ccc(Cl)cc6)CC(C)(C)CC5)CC4)cc3Oc3cnc4[nH]ccc4c3)cc([N+](=O)[O-])c2N1 [Example 2-86, 2-((1H-pyrrolo[2,3-b]pyridin-5-yl)oxy)-4-(4-((4′-chloro-5,5-dimethyl-3,4,5,6-tetra-hydro-[1,1′-biphenyl]-2-yl)methyl)piperazin-1-yl)-N-(((S)-3-(((R)-3-methylmorpholino)meth-yl)-5-nitro-3,4-dihydro-2H-benzo[b][1,4]oxazin-7-yl)sulfonyl)benzamide] | 648
CC1(C)CCC(CN2CCN(c3ccc(C(=O)NS(=O)(=O)c4cc5c(c([N+](=O)[O-])c4)N[C@@H](C4CCNCC4)CO5)c(Oc4cnc5[nH]ccc5c4)c3)CC2)=C(c2ccc(Cl)cc2)C1 [Example 2-228, (S)-2-((1H-pyrrolo[2,3-b]pyridin-5-yl)oxy)-4-(4-((4′-chloro-5,5-dimethyl-3,4,5,6-tetra-hydro-[1,1′-biphenyl]-2-yl)methyl)piperazin-1-yl)-N-((5-nitro-3-(piperidin-4-yl)-3,4-dihydro-2H-benzo[b][1,4]oxazin-7-yl)sulfonyl)benzamide] | 48
CC1(C)CCC(CN2CCN(c3ccc(C(=O)NS(=O)(=O)c4cc5c(c([N+](=O)[O-])c4)N[C@@H](CN4CCS(=O)(=NC6CC6)CC4)CO5)c(Oc4cnc5[nH]ccc5c4)c3)CC2)=C(c2ccc(Cl)cc2)C1 [Example 2-124, (S)-2-((1H-pyrrolo[2,3-b]pyridin-5-yl)oxy)-4-(4-((4′-chloro-5,5-dimethyl-3,4,5,6-tetra-hydro-[1,1′-biphenyl]-2-yl)methyl)piperazin-1-yl)-N-((3-((1-(cyclopropylimino)-1-oxi-do-1λ^6-thiomorpholino)methyl)-5-nitro-3,4-dihydro-2H-benzo[b][1,4]oxazin-7-yl)sulfonyl)benzamide] | 649
CC1(C)CCC(CN2CCN(c3ccc(C(=O)NS(=O)(=O)c4cc5c(c([N+](=O)[O-])c4)N[C@@H](CCNC(=O)N4CCOCC4)CO5)c(Oc4cnc5[nH]ccc5c4)c3)CC2)=C(c2ccc(Cl)cc2)C1 [Example 2-58, (S)-N-(2-(7-(N-(2-((1H-pyrrolo[2,3-b]pyridin-5-yl)oxy)-4-(4-((4′-chloro-5,5-dimethyl-3,4,5,6-tetrahydro-[1,1′-biphenyl]-2-yl)meth-yl)piperazin-1-yl)benzoyl)sulfamoyl)-5-nitro-3,4-dihydro-2H-benzo[b][1,4]oxazin-3-yl)ethyl)morpholine-4-carboxamide] | 868
CC1(C)CCC(CN2CCN(c3ccc(C(=O)NS(=O)(=O)c4cc5c(c([N+](=O)[O-])c4)N[C@H](c4ccc(F)cn4)CO5)c(Oc4cnc5[nH]ccc5c4)c3)CC2)=C(c2ccc(Cl)cc2)C1 [Example 2-178, (R)-2-((1H-pyrrolo[2,3-b]pyridin-5-yl)oxy)-4-(4-((4′-chloro-5,5-dimethyl-3,4,5,6-tetra-hydro-[1,1′-biphenyl]-2-yl)methyl)piperazin-1-yl)-N-((3-(5-fluoropyridin-2-yl)-5-nitro-3,4-dihydro-2H-benzo[b][1,4]oxazin-7-yl)sulfonyl)benzamide] | 28
COc1ccc([C@@H]2COc3cc(S(=O)(=O)NC(=O)c4ccc(N5CCN(CC6=C(c7ccc(Cl)cc7)CC(C)(C)CC6)CC5)cc4Oc4cnc5[nH]ccc5c4)cc([N+](=O)[O-])c3N2)cc1 [Example 2-169, (R)-2-((1H-pyrrolo[2,3-b]pyridin-5-yl)oxy)-4-(4-((4′-chloro-5,5-dimethyl-3,4,5,6-tetra-hydro-[1,1′-biphenyl]-2-yl)methyl)piperazin-1-yl)-N-((3-(4-methoxyphenyl)-5-nitro-3,4-dihydro-2H-benzo[b][1,4]oxazin-7-yl)sulfonyl)benzamide] | 39
CC1(C)CCC(CN2CCN(c3ccc(C(=O)NS(=O)(=O)c4cc5c(c([N+](=O)[O-])c4)N[C@H](CN4CCOC4=O)CO5)c(Oc4cnc5[nH]ccc5c4)c3)CC2)=C(c2ccc(Cl)cc2)C1 [Example 2-146, (R)-2-((1H-pyrrolo[2,3-b]pyridin-5-yl)oxy)-4-(4-((4′-chloro-5,5-dimethyl-3,4,5,6-tetra-hydro-[1,1′-biphenyl]-2-yl)methyl)piperazin-1-yl)-N-((5-nitro-3-((2-oxooxazolidin-3-yl)methyl)-3,4-dihydro-2H-benzo[b][1,4]oxazin-7-yl)sulfonyl)benzamide] | 160
